From publication PMC4955970, “Stable, synthetic analogs of diadenosine tetraphosphate inhibit rat and human P2X3 receptors and inflammatory pain” (Molecular Pain, 2016)

Tested on: CFA-induced thermal hyperalgesia
Experiment: Hargreaves plantar test, CFA-induced thermal hyperalgesia
Assay type: in vivo, rat
Settings: 20 µM; for period after intraplantar injection in which antinociceptive effect was observed: inflamed hindpaw
Protocol: To induce chronic inflammatory hyperalgesia, rats were injected with complete Freund’s adjuvant (CFA, 100 μl of 50% solution) into the plantar surface of the right hindpaw 24 h prior to testing. Control animals were injected with 100 μl of pure saline. Injections of AppCH2ppA and AppNHppA (100 nM–100 μM) in 100 μl of 0.9% saline were made just before the beginning of the plantar test.
For intrathecal injection, a polyethylene-10 catheter was inserted into the rat’s subarachnoid space through a small incision at the cisterna magna, and the tip of the catheter was implanted at the L4 spinal segmental level. Animals were allowed to recover for at least four days before behavior tests. AppCH2ppA or vehicle (saline) was injected intrathecally (10 µl) and flushed with 10 µl of saline.
The Hargreaves technique[51] was used for thermal hyperalgesia studies (using the Ugo Basile Model 7370 Plantar Test). Paw withdrawal responses to noxious heat stimuli were measured in rats as described.[52] To measure response to noxious heat stimuli, each animal was placed in a Plexiglas chamber on a glass plate located above a light box. Radiant heat was applied by focused infrared (IR) beam to the middle of the plantar surface of rat hindpaw. When the animal lifted its foot, the IR beam was turned off. The time interval between the start of the IR beam and the foot lift was defined as the paw withdrawal latency. Each trial was repeated 13 times at 20-min intervals for each paw. A cut-off time of 30 s was used to prevent paw tissue damage.
Figure 10. Ap4A analogs reduced thermal hyperalgesia induced by complete Freund adjuvant (CFA) (Hargreaves plantar test). (a) Time course of the effects of subcutaneous injection of AppCH2ppA (20 µM) and AppNHppA (20 µM) on the paw withdrawal latency (PWL). […] (b) Bar graphs illustrating the effects of AppCH2ppA (20 µM) and AppNHppA (20 µM) on PWL. (c) Time course of effects of intraplantar and intrathecal administration of AppCH2ppA (20 µM) on PWL. […] (d) Bar graphs illustrating effects of intathecal and intraplantar administration of AppCH2ppA (20 µM) on the PWL (* vs. CFA, p < 0.05; *** vs. CFA, p < 0.001; ### vs. intrathecal, p < 0.001; seven rats for control, eight rats for CFA, six rats for intrathecal, and six rats for each compound for intraplantar injection were used).

SMILES | duration of antinociceptive effect, intraplantar (intraplantar) | pain inhibition, intraplantar administration (intraplantar) | time after intraplantar injection at which effect became potent (intraplantar) | period after intraplantar injection in which antinociceptive effect was observed (intraplantar) | duration of antinociceptive effect, intrathecal (intrathecal) | pain inhibition, intrathecal administration (intrathecal) | time after intrathecal injection at which effects were observed (intrathecal)
Nc1ncnc2c1ncn2[C@@H]1O[C@H](COP(=O)(O)OP(=O)(O)CP(=O)(O)OP(=O)(O)OC[C@H]2O[C@@H](n3cnc4c(N)ncnc43)C(O)C2O)C(O)C1O (stereo partly drawn) [AppCH2ppA, diadenosine 5′,5′′′-P^1,P^4-(β,γ-methylene)tetraphosphate] | 180 min | 58% | 20 min | ≤ 200 min | 60 min | 22% | 120 min
Nc1ncnc2c1ncn2[C@@H]1O[C@H](COP(=O)(O)OP(=O)(O)NP(=O)(O)OP(=O)(O)OC[C@H]2O[C@@H](n3cnc4c(N)ncnc43)[C@H](O)[C@@H]2O)[C@@H](O)[C@H]1O [AppNHppA, diadenosine 5′,5′′′-P^1,P^4-(β,γ-imido)tetraphosphate] | 180 min | – | 20 min | ≤ 200 min | – | – | –
